Measured values taken from the NIST ThermoML archive (doi:10.1021/je060033f).
± gives the expanded uncertainty stated by the source.

Assay: activity coefficient (dimensionless); of the first substance listed, at infinite dilution; xn = mol fraction of the nth substance listed
Details: 323.15 K; 101 kPa; Liquid; Chromatography; x1 = 0

activity coefficient | SMILES
0.33 ± 0.03 | ClCCl [dichloromethane] + C=CCn1cc[n+](C)c1.[Br-]
0.34 ± 0.03 | ClCCl [dichloromethane] + CCCCCCCCCCCC[n+]1ccn(CCCB(O)O)c1.[Br-]
0.25 ± 0.03 | ClCCl [dichloromethane] + CCCCCCCCCC[n+]1ccn(CCCB(O)O)c1.[Br-]
0.41 ± 0.03 | ClCCl [dichloromethane] + CCCCCCCC[n+]1ccn(CCCB(O)O)c1.[Br-]
3.2 ± 0.22 | ClCCl [dichloromethane] + C[n+]1ccn(CCCB(O)O)c1.[Br-]
0.27 ± 0.03 | CCO [ethanol] + C=CC[n+]1ccn(CCCCCCCC)c1.[Br-]
0.26 ± 0.03 | CCO [ethanol] + C=CC[n+]1ccn(CCCCCCCCCC)c1.[Br-]
0.23 ± 0.03 | CCO [ethanol] + C=CC[n+]1ccn(CCCCCCCCCCCC)c1.[Br-]
0.27 ± 0.03 | CCO [ethanol] + C=CCn1cc[n+](C)c1.[Br-]
2.56 ± 0.17 | CCc1ccccc1 [ethylbenzene] + C=CC[n+]1ccn(CCCCCCCC)c1.[Br-]
2.54 ± 0.17 | CCc1ccccc1 [ethylbenzene] + C=CC[n+]1ccn(CCCCCCCCCC)c1.[Br-]
1.77 ± 0.12 | CCc1ccccc1 [ethylbenzene] + C=CC[n+]1ccn(CCCCCCCCCCCC)c1.[Br-]
11.1 ± 0.76 | CCc1ccccc1 [ethylbenzene] + C=CCn1cc[n+](C)c1.[Br-]
3.83 ± 0.26 | CCc1ccccc1 [ethylbenzene] + CCCCCCCCCCCC[n+]1ccn(CCCB(O)O)c1.[Br-]
2.37 ± 0.16 | CCc1ccccc1 [ethylbenzene] + CCCCCCCCCC[n+]1ccn(CCCB(O)O)c1.[Br-]
3.28 ± 0.22 | CCc1ccccc1 [ethylbenzene] + CCCCCCCC[n+]1ccn(CCCB(O)O)c1.[Br-]

activity coefficient | SMILES
45.1 ± 3.1 | CCc1ccccc1 [ethylbenzene] + C[n+]1ccn(CCCB(O)O)c1.[Br-]
11.4 ± 0.78 | CCCCCCC [heptane] + C=CC[n+]1ccn(CCCCCCCC)c1.[Br-]
11.1 ± 0.76 | CCCCCCC [heptane] + C=CC[n+]1ccn(CCCCCCCCCC)c1.[Br-]
5.32 ± 0.36 | CCCCCCC [heptane] + C=CC[n+]1ccn(CCCCCCCCCCCC)c1.[Br-]
49.6 ± 3.4 | CCCCCCC [heptane] + C=CCn1cc[n+](C)c1.[Br-]
5.36 ± 0.37 | CCCCCCC [heptane] + CCCCCCCCCCCC[n+]1ccn(CCCB(O)O)c1.[Br-]
7.04 ± 0.48 | CCCCCCC [heptane] + CCCCCCCCCC[n+]1ccn(CCCB(O)O)c1.[Br-]
20.2 ± 1.4 | CCCCCCC [heptane] + CCCCCCCC[n+]1ccn(CCCB(O)O)c1.[Br-]
77.6 ± 5.3 | CCCCCCC [heptane] + C[n+]1ccn(CCCB(O)O)c1.[Br-]
5.93 ± 0.4 | C=CCCCC [hex-1-ene] + C=CC[n+]1ccn(CCCCCCCC)c1.[Br-]
5.89 ± 0.4 | C=CCCCC [hex-1-ene] + C=CC[n+]1ccn(CCCCCCCCCC)c1.[Br-]
3.47 ± 0.24 | C=CCCCC [hex-1-ene] + C=CC[n+]1ccn(CCCCCCCCCCCC)c1.[Br-]
16.5 ± 1.1 | C=CCCCC [hex-1-ene] + C=CCn1cc[n+](C)c1.[Br-]
3.6 ± 0.25 | C=CCCCC [hex-1-ene] + CCCCCCCCCCCC[n+]1ccn(CCCB(O)O)c1.[Br-]
3.76 ± 0.26 | C=CCCCC [hex-1-ene] + CCCCCCCCCC[n+]1ccn(CCCB(O)O)c1.[Br-]
8.32 ± 0.57 | C=CCCCC [hex-1-ene] + CCCCCCCC[n+]1ccn(CCCB(O)O)c1.[Br-]

SMILES | activity coefficient
CCOCC [diethyl ether] + C=CC[n+]1ccn(CCCCCCCC)c1.[Br-] | 4.18 ± 0.28
CCOCC [diethyl ether] + C=CC[n+]1ccn(CCCCCCCCCC)c1.[Br-] | 3.54 ± 0.24
CCOCC [diethyl ether] + C=CC[n+]1ccn(CCCCCCCCCCCC)c1.[Br-] | 2.95 ± 0.2
CCOCC [diethyl ether] + C=CCn1cc[n+](C)c1.[Br-] | 11.4 ± 0.78
